Common to all, as to type: in vivo
The test system of experiment [1] is barnyardgrass (Echinochloa crus-galli L.): ECHCG. In words: Test Example 1 pre-emergence herbicidal activity, ECHCG. The following applies: visually observed 20th to 23rd day after application. The text has this:
(§1) Upland field soil was put into a 1/170,000 ha pot, and seeds of various plants {1. barnyardgrass (Echinochloa crus-galli L.): ECHCG, 2. crabgrass (Digitaria sanguinalis L.): DIGSA, 3. green foxtail (Setaria viridis L.): SETVI, 4. redroot pigweed (Amaranthus retroflexus L.): AMARE, 5. prickly sida (Sida spinosa L.): SEDSP, 6. velvetleaf (Abutilon theophrasti): ABUTH, 7. common cocklebur (Xanthium strumarium L.): XANST, 8. rice (Oryza sativa L.): ORYSA, 9. wheat (Triticum aestivum L.): TRZAX, 10. corn (Zea mays L.): ZEAMX, 11. soybean (Glycine max Merr.): GLXMA} were sown. Then, one day after the sowing, a wettable powder or emulsifiable concentrate having the compound of the present invention formulated in accordance with a usual formulation method, was weighed so that the active ingredient would be a predetermined amount and diluted with water in an amount of 500 L/ha. The herbicide adjusted was applied by a small size sprayer for preemergence treatment. On the 20th to 23rd day after the application of the herbicide, the growth of the respective plants was visually observed, and the herbicidal effects were evaluated by growth controlling degrees (%) ranging from 0 (equivalent to the untreated control) to 100 (complete kill), whereby the results shown in Table 4, were obtained. Compound Nos. in Table 4 correspond to Compound Nos. in Table 1 and 2 given hereinbefore.

In experiment [2] the test system is crabgrass (Digitaria sanguinalis L.): DIGSA. The experiment can be described thus: Test Example 1 pre-emergence herbicidal activity, DIGSA. The following applies: visually observed 20th to 23rd day after application.
From the text: as §1

For experiment [3], the system named is green foxtail (Setaria viridis L.): SETVI. In words: Test Example 1 pre-emergence herbicidal activity, SETVI. The following applies: visually observed 20th to 23rd day after application.
From the text: as §1

Experiment [4] relates to redroot pigweed (Amaranthus retroflexus L.): AMARE. The experiment can be described thus: Test Example 1 pre-emergence herbicidal activity, AMARE. The note with it: visually observed 20th to 23rd day after application.
From the text: as §1

Experiment [5] relates to prickly sida (Sida spinosa L.): SEDSP. The experiment can be described thus: Test Example 1 pre-emergence herbicidal activity, SIDSP. The note with it: visually observed 20th to 23rd day after application.
From the text: as §1

The test system of experiment [6] is velvetleaf (Abutilon theophrasti): ABUTH. The experiment can be described thus: Test Example 1 pre-emergence herbicidal activity, ABUTH. The note with it: visually observed 20th to 23rd day after application.
From the text: as §1

Experiment [7] deals with rice (Oryza sativa L.): ORYSA. In words: Test Example 1 pre-emergence herbicidal activity, ORYSA. The following applies: visually observed 20th to 23rd day after application.
From the text: as §1

Experiment [8] deals with wheat (Triticum aestivum L.): TRZAX. In words: Test Example 1 pre-emergence herbicidal activity, TRZAX. The following applies: visually observed 20th to 23rd day after application.
From the text: as §1

The subject of experiment [9] is corn (Zea mays L.): ZEAMX. In words: Test Example 1 pre-emergence herbicidal activity, ZEAMX. The following applies: visually observed 20th to 23rd day after application.
From the text: as §1

The subject of experiment [10] is soybean (Glycine max Merr.): GLXMA. The experiment can be described thus: Test Example 1 pre-emergence herbicidal activity, GLXMA. The following applies: visually observed 20th to 23rd day after application.
From the text: as §1

Experiment [11] deals with barnyardgrass (Echinochloa crus-galli L.), ECHCG. In words: Test Example 2 post-emergence (foliage treatment) herbicidal activity, ECHCG. The following applies: 63 g a.i./ha. An excerpt: (§2) Upland field soil was put into a 1/170,000 ha pot, and seeds of various plants were sown. Then, when the plants reached predetermined leaf stages {1. barnyardgrass (Echinochloa crus-galli L.), ECHCG: 1.1-2.1 leaf stage, 2. crabgrass (Digitaria sanguinalis L.), DIGSA: 1.0-2.0 leaf stage, 3. green foxtail (Setaria viridis L.), SETVI: 1.0-2.2 leaf stage, 4. redroot pigweed (Amaranthus retroflexus L.), AMARE: 0.1-1.5 leaf stage, 5. prickly sida (Sida spinosa L.), SIDSP: 0.1-0.6 leaf stage, 6. velvetleaf (Abutilon theophrasti), ABUTH: 0.1-0.6 leaf stage, 7. common cocklebur (Xanthium strumarium L.), XANST: 0.1 leaf stage, 8. rice (Oryza sativa L.), ORYSA; 1.0-2 leaf stage, 9. wheat (Triticum aestivum L.), TRZAX: 2.3-3.5 leaf stage, 10. corn (Zea mays L.), ZEAMXN 2.1-2.6 leaf stage, 11. soybean (Glycine max Merr.), GLXMA: primary leaf stage}, a wettable powder or emulsifiable concentrate having the compound of the present invention formulated in accordance with a usual formulation method, was weighed so that the active ingredient would be a predetermined amount, and diluted with water in an amount of 500 L/ha. To the diluted solution, 0.1% (v/v) of an agricultural spreader was added. The herbicide adjusted was applied by a small size sprayer for foliage treatment. On the 20th to 23rd day after the application of the herbicide, the growth of the respective plants was visually observed, and the herbicidal effects were evaluated by growth controlling degrees (%) ranging from 0 (equivalent to the untreated control) to 100 (complete kill), whereby the results shown in Table 5, were obtained. Compound Nos. in Table 5 correspond to Compound Nos. in Table 1 and 2 given hereinbefore.

Experiment [12] deals with crabgrass (Digitaria sanguinalis L.), DIGSA. In words: Test Example 2 post-emergence (foliage treatment) herbicidal activity, DIGSA. The note with it: 63 g a.i./ha.
From the text: as §2

In experiment [13] the test system is green foxtail (Setaria viridis L.), SETVI. The experiment can be described thus: Test Example 2 post-emergence (foliage treatment) herbicidal activity, SETVI. The note with it: 63 g a.i./ha.
From the text: as §2

Experiment [14] deals with prickly sida (Sida spinosa L.), SIDSP. In words: Test Example 2 post-emergence (foliage treatment) herbicidal activity, SIDSP. The note with it: 63 g a.i./ha.
From the text: as §2

In experiment [15] the test system is velvetleaf (Abutilon theophrasti), ABUTH. In words: Test Example 2 post-emergence (foliage treatment) herbicidal activity, ABUTH. The note with it: 63 g a.i./ha.
From the text: as §2

Experiment [16] concerns rice (Oryza sativa L.), ORYSA. The experiment can be described thus: Test Example 2 post-emergence (foliage treatment) herbicidal activity, ORYSA. The following applies: 63 g a.i./ha.
From the text: as §2

Experiment [17] concerns wheat (Triticum aestivum L.), TRZAX. In words: Test Example 2 post-emergence (foliage treatment) herbicidal activity, TRZAX. The note with it: 63 g a.i./ha.
From the text: as §2

Experiment [18] concerns corn (Zea mays L.), ZEAMX. The experiment can be described thus: Test Example 2 post-emergence (foliage treatment) herbicidal activity, ZEAMX. The note with it: 63 g a.i./ha.
From the text: as §2

The subject of experiment [19] is soybean (Glycine max Merr.), GLXMA. The experiment can be described thus: Test Example 2 post-emergence (foliage treatment) herbicidal activity, GLXMA. The following applies: 63 g a.i./ha.
From the text: as §2

In the case of `COc1c(Cl)cc(F)c(-c2nn(C)c(OC(F)F)c2Cl)c1NC(=O)c1ccc2ccccc2c1` [Compound 1-271], in experiment [1] (Rate 125 g a.i./ha), the “Pre-emergence Herbicidal Activity ECHCG (growth controlling degree)” value (“Pre-emergence Herbicidal Activity ECHCG” for short) was found to be 70%. Further, the “Pre-emergence Herbicidal Activity DIGSP (growth controlling degree)” value (“Pre-emergence Herbicidal Activity DIGSP” below) in [2] (Rate 125 g a.i./ha) turned out to be 100%. Also, in experiment [3] (Rate 125 g a.i./ha), the “Pre-emergence Herbicidal Activity SETVI (growth controlling degree)” value (shortened to “Pre-emergence Herbicidal Activity SETVI”) came out at 90%. Also, the “Pre-emergence Herbicidal Activity AMARE (growth controlling degree)” value (“Pre-emergence Herbicidal Activity AMARE” for short) in experiment [4] (Rate 125 g a.i./ha) was 100%. The “Pre-emergence Herbicidal Activity SIDSP (growth controlling degree)” value (“Pre-emergence Herbicidal Activity SIDSP” below) in experiment [5] (Rate 125 g a.i./ha) is 100%. The “Pre-emergence Herbicidal Activity ABUTH (growth controlling degree)” value (shortened to “Pre-emergence Herbicidal Activity ABUTH”) in experiment [6] (Rate 125 g a.i./ha) turned out to be 40%. Further, in experiment [7] (Rate 125 g a.i./ha), the “Pre-emergence Herbicidal Activity ORYSA (growth controlling degree)” value (“Pre-emergence Herbicidal Activity ORYSA” for short) is given as 60%. The “Pre-emergence Herbicidal Activity TRZAX (growth controlling degree)” value (“Pre-emergence Herbicidal Activity TRZAX” below) in [8] (Rate 125 g a.i./ha) was 10%. Further, the “Pre-emergence Herbicidal Activity ZEAMX (growth controlling degree)” value (shortened to “Pre-emergence Herbicidal Activity ZEAMX”) in experiment [9] (Rate 125 g a.i./ha) amounted to 20%. Further, in experiment [10] (Rate 125 g a.i./ha), the “Pre-emergence Herbicidal Activity GLXMA (growth controlling degree)” value (“Pre-emergence Herbicidal Activity GLXMA” for short) amounted to 20%.
As to `COCCC(=O)Nc1c(OC)c(Cl)cc(F)c1-c1nn(C)c(OC(F)F)c1Cl` [Compound 1-40], in experiment [1] (Rate 63 g a.i./ha), the “Pre-emergence Herbicidal Activity ECHCG” value came out at 100%. Also, the “Pre-emergence Herbicidal Activity DIGSP” value in experiment [2] (Rate 63 g a.i./ha) is on record as 100%. The “Pre-emergence Herbicidal Activity SETVI” value in experiment [3] (Rate 63 g a.i./ha) is on record as 100%. Besides, the “Pre-emergence Herbicidal Activity AMARE” value in [4] (Rate 63 g a.i./ha) is 100%. Further, the “Pre-emergence Herbicidal Activity SIDSP” value in [5] (Rate 63 g a.i./ha) amounted to 100%. The “Pre-emergence Herbicidal Activity ABUTH” value in experiment [6] (Rate 63 g a.i./ha) turned out to be 100%. In addition, the “Pre-emergence Herbicidal Activity ORYSA” value in [7] (Rate 63 g a.i./ha) worked out at 80%. In addition, the “Pre-emergence Herbicidal Activity TRZAX” value in [8] (Rate 63 g a.i./ha) was 60%. Besides, the “Pre-emergence Herbicidal Activity ZEAMX” value in experiment [9] (Rate 63 g a.i./ha) is on record as 60%. The “Pre-emergence Herbicidal Activity GLXMA” value in experiment [10] (Rate 63 g a.i./ha) was 30%. Moreover, the “growth controlling degree, ECHCO” value in experiment [11] was determined as 100%. The “growth controlling degree, DIGSP” value in [12] worked out at 80%. Also, the “growth controlling degree, SETVI” value in [13] is on record as 100%. The “growth controlling degree, SIDSP” value in [14] is 100%. The “growth controlling degree, ABUTH” value in experiment [15] is reported as 100%. In [16], the “growth controlling degree, ORYSA” value is 100%. Besides, in experiment [17], the “growth controlling degree, TRZAX” value stood at 50%. Moreover, the “growth controlling degree, ZEAMX” value in experiment [18] was 70%. For the same molecule, the “growth controlling degree, GLXMA” value in experiment [19] was 95%.
For the molecule `COc1c(Cl)cc(F)c(-c2nn(C)c(OC(F)F)c2Cl)c1NC(=O)CCc1ccc(F)cc1` [Compound 1-267], the “Pre-emergence Herbicidal Activity ECHCG” value in experiment [1] (Rate 63 g a.i./ha) stood at 70%. Further, the “Pre-emergence Herbicidal Activity DIGSP” value in [2] (Rate 63 g a.i./ha) worked out at 100%. Further, in experiment [3] (Rate 63 g a.i./ha), the “Pre-emergence Herbicidal Activity SETVI” value stood at 95%. In addition, the “Pre-emergence Herbicidal Activity AMARE” value in [4] (Rate 63 g a.i./ha) amounted to 100%. In addition, in experiment [5] (Rate 63 g a.i./ha), the “Pre-emergence Herbicidal Activity SIDSP” value stood at 80%. The “Pre-emergence Herbicidal Activity ABUTH” value in [6] (Rate 63 g a.i./ha) worked out at 100%. In addition, the “Pre-emergence Herbicidal Activity ORYSA” value in [7] (Rate 63 g a.i./ha) is 30%. For the same molecule, in [8] (Rate 63 g a.i./ha), the “Pre-emergence Herbicidal Activity TRZAX” value stood at 20%. For the same molecule, the “Pre-emergence Herbicidal Activity ZEAMX” value in [9] (Rate 63 g a.i./ha) came out at 0%. Further, the “Pre-emergence Herbicidal Activity GLXMA” value in [10] (Rate 63 g a.i./ha) is given as 0%.

The values above are taken from patent US20050245399A1, “Pyrazole derivatives as herbicidal compositions containing them” (ISHIHARA SANGYO KAISHA, LTD., priority 2004, published 2005).
